The results in this text go back to US5789434A, “Derivatives of substituted 4-biarylbutyric acid as matrix metalloprotease inhibitors” (priority 1995, dated 1998).

pIC50: −log10 of the molar value.

What all share (assay type): biochemical
The target in assay [1] is T1, MMP-9 (Homo sapiens, UniProt P14780).
T1 construct: from tissue; host or cells: human polymorphonuclear leukocytes (PMN) from whole blood (New York Blood Center), PMA-stimulated supernatant
The assay can be described thus: Automated MMP Profiling Assay, MMP-9 fluorogenic. Conditions: for pIC50: 96-well automated, P218. How it is done: Briefly, polymorphonuclear leukocytes (PMN) preparations were isolated as described above from 3 or more units of freshly drawn whole blood obtained from the New York Blood Center (New York, N.Y.). Cells were resuspended in phosphate buffered saline (PBS) containing 100 ng/ml phorbol myristate acetate (PMA) in the presence of 50 mM diisopropylfluorophospate (DFP), 1 μg/ml leupeptin and aprotinin, and 1 mg/ml catalase for 1 hr at 37° C. Supernatants were collected by centrifugation (300×g) and the samples were frozen at -70° C. All chromatographic methods were performed at 4° C. Thawed samples were concentrated 5-fold using an Amicon chamber equipped with a YM-10 membrane. The concentrate was pressure dialyzed against 0.02M Tris-HCl, 0.1M NaCl, 1 mM CaCl2, 1 μM ZnCl2, 0.001% Brij-35, 0.02% sodium azide (NaN3), pH 7.5 and applied to DEAE ion exchange chromatography resin which was previously equilibrated with the same buffer at a flow rate of 0.4 ml/min. The column was extensively washed with the same buffer and gelatinase was eluted as 4 ml fractions from the column with 0.02M Tris-HCl, 0.5M NaCl, 1 mM CaCl2, 1 μM ZnCl2, 0.001% Brij-35, 0.02% NaN3, pH 7.5. Gelatinase containing fractions were observed by gelatin zymography (see below), loaded onto a gelatin agarose affinity resin and washed with the same buffer. Gelatinase activity was eluted at a flow rate of 1 ml/min from the column as 1 ml fractions with 0.02M Tris-HCl, 1M NaCl, 1 mM CaCl2, 1 μM ZnCl2, 0.001% Brij-35, 0.02% NaN3, pH 7.5 containing 10% dimethyl sulfoxide (DMSO). The fractions containing gelatinase activity were pooled and dialyzed against 0.005M Tris-HCl, 5 mM NaCl, 0.5 mM CaCl2, 0.1 μM ZnCl2, 0.001% Brij-35, pH 7.4. The protein content associated with material was determined with a micro-BCA assay (Pierce, Rockford, Ill.), lyophilized and reconstituted to a desired working concentration (100 μg/ml).
This assay was run with a protocol analogous to that reported for MMP-3 inhibition using the synthetic peptide P218 and each of the three enzymes and measuring quenched fluorescence. This assay with each invention compound was run with the three enzymes MMP-3, MMP-9 and MMP-2 in parallel as adapted for a 96-well microtitre plate using a Hamilton A® workstation.

Assay [2] deals with T2, MMP-2 (Homo sapiens, UniProt P08253).
T2 sequence (P08253 110-660): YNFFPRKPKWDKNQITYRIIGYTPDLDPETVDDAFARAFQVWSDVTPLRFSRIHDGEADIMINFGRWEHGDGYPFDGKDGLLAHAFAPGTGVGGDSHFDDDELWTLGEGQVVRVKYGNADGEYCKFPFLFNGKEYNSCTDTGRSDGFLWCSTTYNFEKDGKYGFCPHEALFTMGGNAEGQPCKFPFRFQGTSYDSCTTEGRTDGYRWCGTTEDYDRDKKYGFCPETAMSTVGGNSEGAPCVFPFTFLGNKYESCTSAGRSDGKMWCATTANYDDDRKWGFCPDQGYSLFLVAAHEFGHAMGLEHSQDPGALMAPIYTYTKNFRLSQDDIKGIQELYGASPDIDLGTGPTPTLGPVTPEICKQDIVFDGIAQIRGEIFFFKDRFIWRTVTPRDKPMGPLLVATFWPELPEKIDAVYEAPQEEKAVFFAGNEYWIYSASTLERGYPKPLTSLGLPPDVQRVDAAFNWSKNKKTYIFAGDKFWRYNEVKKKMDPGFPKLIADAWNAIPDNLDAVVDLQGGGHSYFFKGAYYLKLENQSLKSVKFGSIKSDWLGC
The experiment in a line: Automated MMP Profiling Assay, MMP-2 fluorogenic. Conditions: for pIC50: 96-well automated, P218, read-out: MMP-2 Fluorogenic IC50 (profiling).

The target in assay [3] is T3, MMP-3 (Homo sapiens, UniProt P08254).
T3 construct: Truncated Prostromelysin-257 was expressed in a soluble form in E.coli; made in house; host or cells: E. coli
T3 sequence (P08254 100-274 limits assumed): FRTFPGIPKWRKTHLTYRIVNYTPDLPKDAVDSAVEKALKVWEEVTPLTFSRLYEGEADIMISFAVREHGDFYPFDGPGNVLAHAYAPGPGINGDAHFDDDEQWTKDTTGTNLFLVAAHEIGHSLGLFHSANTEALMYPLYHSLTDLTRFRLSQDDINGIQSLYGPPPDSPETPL
The assay can be described thus: Automated MMP Profiling Assay, MMP-3 fluorogenic. The settings on record: for pIC50: 96-well automated, P218. From the text: This assay with each invention compound was run with the three enzymes MMP-3, MMP-9 and MMP-2 in parallel as adapted for a 96-well microtitre plate using a Hamilton A® workstation.

Assay [4] concerns the target T1, MMP-9. The experiment in a line: Thiopeptilide MMP-9 Inhibition Assay. The settings on record: for pIC50: pH 6.5, x (n) = average of n determinations, read-out: MMP-9: Thiopep. IC50; for inhibition at 5 µM: read-out: MMP-9: Thiopep. % inhibition.
The target in assay [5] is T3, MMP-3. The experiment in a line: Primary Thiopeptilide MMP-3 Inhibition Assay. The settings on record: for pIC50: pH 6.5, 13 nM stromelysin, x (n) = average of n determinations, read-out: MMP-3 Thiopep. IC50; for inhibition at 5 µM: read-out: MMP-3 Thiopep. % inhibition.
Protocol: Enzyme: recombinant stromelysin expressed in E.coli and purified as described above. […] The protocols for the assay of compounds as stromelysin inhibitors was the same as that used for MMP-9 except that the assay buffer was 50 mM MES, pH 6.5 containing 150 mM NaCl, 10 mM CaCl2, 0.005% Brij, and 1% DMSO.

T1 sequence (P14780 107-707 limits assumed): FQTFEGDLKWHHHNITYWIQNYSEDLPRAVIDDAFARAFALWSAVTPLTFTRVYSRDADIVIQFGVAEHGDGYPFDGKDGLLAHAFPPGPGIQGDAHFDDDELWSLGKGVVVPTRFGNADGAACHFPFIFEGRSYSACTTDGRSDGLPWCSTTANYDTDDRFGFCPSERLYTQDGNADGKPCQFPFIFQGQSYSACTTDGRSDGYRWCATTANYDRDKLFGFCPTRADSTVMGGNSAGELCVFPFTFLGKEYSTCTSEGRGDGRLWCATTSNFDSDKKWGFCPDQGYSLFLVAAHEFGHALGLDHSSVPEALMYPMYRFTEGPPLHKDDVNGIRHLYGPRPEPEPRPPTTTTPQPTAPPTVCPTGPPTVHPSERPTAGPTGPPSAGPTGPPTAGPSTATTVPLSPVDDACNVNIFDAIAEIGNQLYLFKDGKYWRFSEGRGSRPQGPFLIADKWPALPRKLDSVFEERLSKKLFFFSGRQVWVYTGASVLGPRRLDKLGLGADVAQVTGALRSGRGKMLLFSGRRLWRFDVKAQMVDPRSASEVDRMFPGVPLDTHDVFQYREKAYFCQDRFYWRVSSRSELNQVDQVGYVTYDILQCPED

Turning to `O=C(CC(CCCc1ccccc1)C(=O)O)c1ccc(-c2ccc(OCc3cccnc3)cc2)cc1` (stereo not drawn) [Example 109, [1,1'-Biphenyl]-4-butanoic acid, γ-oxo-α-(3-phenylpropyl)-4'-(3-pyridinylmethoxy)-], the results for the pIC50 in assay [1], in assay [2] and in assay [3] were 5.89, 8.18 and 7.55, respectively.

For the molecule `O=C(CC(CCN1C(=O)c2cc3ccccc3cc2C1=O)C(=O)O)c1ccc(-c2ccc(Cl)cc2)cc1` (stereo not drawn) [Example 409, 2H-Benz[.function.]isoindole-2-butanoic acid, α-[2-(4'-chloro[1,1'-biphenyl]-4-yl)-2-oxoethyl]-1,3-dihydro-1,3-dioxo-], the pIC50 (as a rule, the negative decadic logarithm of the IC50, by convention in mol/L) in assay [1] is 8.72; in assay [2], 7.52; in assay [3] it was 7.91.

In the case of `CC(=O)O[C@H]1C[C@H](C(=O)c2ccc(-c3ccc(Cl)cc3)cc2)[C@H]1C(=O)O` (relative stereo) [Example 395, Cyclobutanecarboxylic acid, 2-(acetyloxy)-4-[(4'-chloro[1,1'-biphenyl]-4-yl)carbonyl]-, (1α,2α,4β)-], in assay [1], the inhibition – broadly, the share of the control response that was lost under treatment – at 5 µM was 44%. Moreover, the negative-log IC50 (pIC50) in assay [2] is 6.25; in assay [3], 5.66.

For `O=C(CC(CCCc1ccccc1)C(=O)O)c1ccc(-c2ccc(C(=O)O)o2)cc1` (stereo not drawn) [Example 69, 2-Furancarboxylic acid, 5-[4-(3-carboxy-1-oxo-6-phenylhexyl)phenyl]-], the inhibition at 5 µM in assay [1], in assay [2] (at 5 μM) and in assay [3] was 0% in each case.

As for `O=C(O)[C@@H]1[C@@H](C(=O)c2ccc(-c3ccc(Cl)cc3)cc2)[C@H]2C=C[C@@H]1C2` (relative stereo) [Example 177, Bicyclo[2.2.1]hept-5-ene-2-carboxylic acid, 3-[(4'-chloro[1,1'-biphenyl]-4-yl)carbonyl]-, (2-endo-,3-endo)-], the inhibition at 5 µM in assay [1] was 30%; in assay [3] it was 11%. Besides, the pIC50 in assay [2] was 5.36.

`O=C(CC(CCN1C(=O)c2ccccc2C1=O)C(=O)O)c1ccc(-c2ccc(Br)cc2)cc1` (stereo not drawn) [Example 270]: the results for the pIC50 in assay [1], in assay [2] and in assay [3] were 8.80, 8.85 and 8.22, respectively.

For the molecule `O=C(CC(CCN1C(=O)[C@H]2CC=CC[C@H]2C1=O)C(=O)O)c1ccc(-c2ccc(Cl)cc2)cc1` (relative stereo) [Example 413, 2H-Isoindole-2-butanoic acid, α-[2-(4'-chloro[1,1'-biphenyl]-4-yl)-2-oxoethyl]-1,3,3a,4,7,7a-hexahydro-1,3-dioxo-, cis-], the pIC50 in assay [1] was 6.96; in assay [3], 7.41.

Take `Nc1cccc2c1C(=O)N(C[C@@H]1CC[C@H](C(=O)c3ccc(-c4ccc(Cl)cc4)cc3)[C@H]1C(=O)O)C2=O` (relative stereo) [Example 392, Cyclopentanecarboxylic acid, 2-[(4-amino-1,3-dihydro-1,3-dioxo-2H-isoindol-2-yl)methyl]-5-[(4'-chloro[1,1'-biphenyl]-4-yl)carbonyl]-, (1α,2β,5β)-]: the pIC50 in assay [3] is 8.60.

As for `O=C(CC(CSc1ccccc1)C(=O)O)c1ccc(-c2ccc(Cl)cc2)cc1` (stereo not drawn) [Example 196, 4-[4-(4-chlorophenyl)phenyl]-4-oxo-2-(phenylthiomethyl)butanoic acid], the pIC50 in assay [1] is 6.02; in assay [2], 7.43; in assay [4], 6.36.

As for `O=C(CC(CSc1ccc([N+](=O)[O-])cc1)C(=O)O)c1ccc(-c2ccc(Cl)cc2)cc1` (stereo not drawn) [Example 224, [1,1'-Biphenyl]-4-butanoic acid, 4'-chloro-α[[(4-nitrophenyl)thio]methyl]-γ-oxo-], the pIC50 in assay [5] was 6.17; in assay [4] it was 6.26.

With `O=C(CC(CCCc1ccccc1)P(=O)(O)O)c1ccc(-c2ccc(Br)cc2)cc1` (stereo not drawn) [Example 345, Phosphonic acid, [1-[2-(4'-bromo[1,1'-biphenyl]-4-yl)-2-oxoethyl]-4-phenylbutyl]-], the pIC50 in assay [5] was 5.30. Further, the inhibition at 5 µM in assay [4] came to 30%.

`O=C(O)/C=C/C(=O)c1ccc(-c2ccc(Cl)cc2)cc1` [Example 29, 4-Oxo-4-(4'-chloro-4-biphenyl)but-2-enoic acid, reference compound]: the results for the inhibition at 5 µM in assay [5] and in assay [4] were 28% and 44%, respectively.

With `O=C(CC(CSc1ccc2ccccc2c1)C(=O)O)c1ccc(-c2ccc(Cl)cc2)cc1` (stereo not drawn) [Example 226, [1,1'-Biphenyl]-4-butanoic acid, 4'-chloro-α-[(2-naphthalenylthio)methyl]-γ-oxo-], the pIC50 was 6.14 in assay [5] and 6.59 in assay [4].

Regarding `Cc1nc(-c2ccc(C(=O)CC(CC(C)C)C(=O)O)cc2)co1` (stereo not drawn) [Example 347, Benzenebutanoic acid, 4-(2-methyl-4-oxazolyl)-α-(2-methylpropyl)-γ-oxo-], the figures for the inhibition at 5 µM in assay [5] and in assay [4] were 12% and 0%, respectively.

As to `CCC(CC(=O)c1ccc(-c2ccc(Cl)cc2)cc1)C(=O)O` (stereo not drawn) [Example 117, [1,1'-Biphenyl]-4-butanoic acid, 4'-chloro-α-ethyl-γ-oxo-], the pIC50 in assay [5] is 6.23; in assay [4] it was 5.42.

With `CCCCCCOc1ccc(-c2ccc(C(=O)CC(CCCc3ccccc3)C(=O)O)cc2)cc1` (stereo not drawn) [Example 88, [1,1'-Biphenyl]-4-butanoic acid, 4'-(hexyloxy)γ-oxo-α-(3-phenylpropyl)-], the negative logarithm of the IC50 (pIC50) in assay [5] is 6.77. For the same molecule, the inhibition at 5 µM in assay [4] is 30%.

`O=C(CC(CCCc1ccccc1)C(=O)O)c1ccc(-c2ccc(Cl)cc2)o1` (stereo not drawn) [Example 350, 2-Furanbutanoic acid, 5-(4-chlorohenyl)-γ-oxo-α-(3-phenylpropyl)-]: the inhibition at 5 µM in assay [5] turned out to be 4%; in assay [4], 20%.

Consider `O=C(CC(CSc1ccc(F)cc1)C(=O)O)c1ccc(-c2ccc(Cl)cc2)cc1` (stereo not drawn) [Example 208, [1,1'-Biphenyl]-4-butanoic acid, 4'-chloro-α-[[(4-fluorophenyl)thio]methyl]-γ-oxo-], for which the figures for the pIC50 in assay [5] and in assay [4] were 6.85 and 5.98, respectively.

As for `O=C(O)CCCC(=O)c1ccc(-c2ccc(Cl)cc2)cc1` [Example 333, [1,1'-Biphenyl]-4-pentanoic acid, 4'-chloro-δ-oxo-, reference compound], the inhibition at 5 µM amounted to 62% in assay [5] and 25% in assay [4].

With `COc1ccc(-c2ccc(C(=O)CC(CC(C)C)C(=O)O)cc2)cc1` (stereo not drawn) [Example 19, [1,1'-Biphenyl]-4-butanoic acid, 4'-methoxy-α-(2-methylpropyl)-γ-oxo-], the results for the pIC50 in assay [5] and in assay [4] were 6.26 and 5.92, respectively.

On to `Cc1cccc(SCC(CC(=O)c2ccc(-c3ccc(Cl)cc3)cc2)C(=O)O)c1` (stereo not drawn) [Example 231, [1,1'-Biphenyl]-4-butanoic acid, 4'-chloro-α-[[(3-methylphenyl)thio]methyl]-γ-oxo-], for which the pIC50 in assay [5] is 6.55; in assay [4], 6.09.
